Data as given in patent publication US11891634B2, “PDE5A destabilizing domains” (The Board of Trustees of the Leland Stanford Junior …, priority 2017, dated 2024).

Experiments:
[1] = tested on: PDE5A-AcGFP fusions; assay: FACS analysis of N-terminal PDE5A mutants (PDE5A-AcGFP fusions), Sildenafil vs vehicle; format: cell-based, mouse; conditions: 24 hours; for Stabilization ratio: Sildenafil 20 μM vs vehicle alone; for Mean Fluorescence Intensity (MFI) Sildenafil (20 μM) / Mean Fluorescence Intensity (MFI) Vehicle control: NIH3T3; for Mean Fluorescence Intensity (MFI) Vehicle control: vehicle alone
Procedure: (§1) The NIH3T3 cell line was cultured in DMEM supplemented with 10% heat-inactivated donor bovine serum (Invitrogen), 2 mM glutamine, 100 U/ml penicillin and 100 μg/ml streptomycin.
(§2) The ΦNX ecotropic packaging cell line was transfected using standard Lipofectamine 2000 protocols. Viral supernatants were harvested 48 hours, post transfection, filtered and concentrated 10-fold using Amicon Ultra centrifugal filter device with a 100kDa cutoff. NIH 3T3 cells were incubated with concentrated retroviral supernatants supplemented with 4 μg/ml polybrene for 4 hours at 37° C. Cells were washed once with PBS and cultured in growth media for 24-36 hours to allow for viral integration.
(§3) The transduced NIH3T3 cells were subjected to analysis using fluorescence-activated cell sorting (FACS) to screen the libraries of PDE5A mutants. 24 hours prior to analysis, transduced NIH3T3 cells were plated at 1×10^5 cells per well of a 12-well plate. Cells were removed from the plate using PBS and 2 mM EDTA, washed once with PBS, and resuspended in 200 μL, PBS. FACS analysis was performed on instruments at the Stanford Shared FACS Facility with 10,000 events represented.
(§4) To identify destabilizing domains that are responsive to the PDE5A ligand, Sildenafil, a cell-based screening assay was employed in which the fluorescence of green fluorescent protein derived from Aequorea coerulescens (AcGFP) served as an indicator of PDE5A stability. A library based on the PDE5A catalytic domain sequences was generated using error prone PCR and then cloned in-frame in front of AcGFP. A Moloney murine leukemia retroviral expression was used to stably integrate this library of PDE5A-AcGFP fusions into NIH-3T3 fibroblasts, and the transduced cells were subjected to three rounds of sorting using flow cytometry. In the first round, cells were treated with 10 μM of PDE5A ligand, Sildenafil for 16-24 before analysis. Fluorescent cells were collected and further cultured in the absence of ligand for 60 hours.
(§5) A library of PDE5A-AcGFP fusions i.e., N-terminal PDE5A mutants, was screened using the cell-based screening assay described previously to identify N-terminal destabilizing domains. […] Identified candidates were subjected to further characterization by FACS. Cells were split into two treatment groups and incubated with either Sildenafil (20 μM) or vehicle alone for 24 hours. Cells that were mock transduced or transduced with the wild-type PDE5A construct were also included in the analysis. The results are presented in Table 6 where the N terminal PDE5A mutants are denoted as PDE5AN. The stabilization ratio was calculated as the fold change in GFP intensity of the PDE5A-AcGFP construct in Sildenafil treated sample compared to vehicle alone treated sample.

[2] = tested on: NIH3T3 cells expressing AcGFP-PDE5A fusions; assay: FACS analysis of C-terminal PDE5A mutants (AcGFP-PDE5A fusions), Sildenafil vs vehicle; format: cell-based, mouse; conditions: Table 2, 24 hours; for Mean Fluorescence intensity: NIH3T3; for Stabilization ratio: fold change in GFP intensity, Sildenafil 10 μM vs vehicle alone
Procedure: as §1, §2, §3, §4
as §5, with “AcGFP-PDE5A” for “PDE5A-AcGFP”, “C-terminal” for “N-terminal”, “mutants” for “mutants,”, “(10” for “(20”, “The” for “The results are presented in Table 6 where the N terminal PDE5A mutants are denoted as PDE5AN. The”, “sample. The results are presented in Table 2 where the C terminal PDE5A mutants are denoted as PDE5AC.” for “sample.”
Residue D764 was identified as a mutational hotspot from sequence analysis. PDE5AC (#41) was engineered with either D764N or D764G mutation via site-directed mutagenesis. PDE5AC (#41) +D764N comprises the amino acid sequence of SEQ ID NO. 53 (encoded by SEQ ID NO. 54) and PDE5AC (#41) +D764G comprises the amino acid sequence of SEQ ID NO. 55 (encoded by SEQ ID NO. 56). AcGFP-PDE5A variants were evaluated for Sildenafil dependent stabilization via FACS as described previously. Results from FACS analysis are presented in Table 4 where the C terminal PDE5A mutants are denoted as PDE5AC. The stabilization ratio was calculated as the fold change in GFP intensity of the AcGFP-PDE5A construct in Sildenafil treated sample compared to vehicle alone treated sample.
Extended versions of human PDE5A that included residues in addition to catalytic domain (residues 535-860 of SEQ ID NO. 1) with Q589R polymorphism (SEQ ID NO. 11) were evaluated for use as C-terminal destabilizing domains. Three extended PDE5A sequences were tested that consisted of residues 535-875 of SEQ ID NO. 1 with Q589R polymorphism (SEQ ID NO. 13); residues 466-875 of SEQ ID NO. 1 with Q589R polymorphism (SEQ ID NO. 15); or residues 420-875 of SEQ ID NO. […]

[3] = biological target: T1, HCT 116 cells transduced with the PDE5A DD derived GFP constructs (Homo sapiens, UniProt O76074, K633E/K795E/K852E/Q589R/T712S); assay: Response to Tadalafil, GFP expression by FACS in HCT116; format: cell-based; conditions: 48 hrs, HCT116
T1 construct: Mutations were created in PDE5A (535-860) catalytic domain using site directed mutagenesis; expressed in transfected cells; host or cells: HCT116 (lentiviral transduction, pELNS vector, sorted on mCherry)
Summary of the method: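 HCT116 cells stably transduced (mCherry-sorted) with lentiviral PDE5A DD–AcGFP constructs, exposed to DMSO or Tadalafil 0.01–100 μM for 48 hrs. GFP mean fluorescence by FACS; stabilization ratio = ligand vs no-ligand signal, basal expression = no-ligand signal vs parental autofluorescence.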

[4] = Sildenafil (10 μM) −, vehicle alone

| Substance | Stabilization ratio [1] | Mean Fluorescence Intensity (MFI) Sildenafil (20 μM) [1] | Mean Fluorescence Intensity (MFI) Vehicle control [1] | Mean Fluorescence intensity ([2]; Sildenafil (10 μM) +) | Mean Fluorescence intensity [2, 4] | Stabilization ratio [2] | Tadalafil concentrations at which stabilization ratios greater than 1 were obtained [3] |
| --- | --- | --- | --- | --- | --- | --- | --- |
| PDE5AN (#53): N-terminal DD 535-860 of PDE5A (E536G, Q589R, C839S), SEQ ID NO. 67, fused to AcGFP | 2.62 | 4440 | 1697 |  |  |  |  |
| PDE5AC (#13): AcGFP fused to C-terminal DD 535-860 of PDE5A (Q589R, Y676D, L738H), SEQ ID NO. 24 |  |  |  | 6284 | 1076 | 5.8 |  |
| PDE5AC (#25): AcGFP fused to C-terminal DD 535-860 of PDE5A (Q541R, F559L, Q589R, H678R, I824T), SEQ ID NO. 35 |  |  |  | 2340 | 1452 | 1.6 |  |
| PDE5AC (#43): AcGFP fused to C-terminal DD 535-860 of PDE5A (Q589R, N609H, Y676N, A762S), SEQ ID NO. 29 |  |  |  | 5518 | 1017 | 5.4 |  |
| PDE5AC (#28): AcGFP fused to C-terminal DD 535-860 of PDE5A (Q589R, K591E, N609H, D764V), SEQ ID NO. 25 |  |  |  | 6055 | 1382 | 4.4 |  |
| PDE5AN (#3): N-terminal DD 535-860 of PDE5A (Q589R, K633E, T712S, K852E, K795E), SEQ ID NO. 66, fused to AcGFP | 3.97 | 3335 | 839 |  |  |  | greater than 0.41 μM |
| PDE5AC (#69): AcGFP fused to C-terminal DD 535-860 of PDE5A (Q589R, N636S, D687A, D764N, S815C), SEQ ID NO. 30 |  |  |  | 6365 | 1126 | 5.6 |  |
